# Data reported in US6369103B1, “Method for preventing or reducing risk of onset of cardiovascular events employing an HMG CoA reductase inhibitor” (Bristol-Myers Squibb Company, priority 1994, dated 2002).
# Read-outs that look alike come from different tables or passages of the source.
# What was measured:
# [1] = system: patients with primary hypercholesterolemia and ≧2 additional risk factors for coronary artery disease; test: Multinational randomized double-blind placebo-controlled trial: effects on plasma lipids; type: in vivo, human; details: for LDL cholesterol, Mean ± SEM: calculated (Friedewald)
# Experimental: J. Cardiology Vol. 72, Nov. 1, 1993, 1031-1036. […] Lipid analyses were performed at local laboratories and a central laboratory. […] The LDL cholesterol concentration was calculated using the Friedewald equation converted to mmol/liter: […] To assess the comparability of treatment groups, baseline values and demographic characteristics for all randomized patients were summarized for each treatment group by descriptive statistics. The primary efficacy variables were the serum lipids analyzed at local laboratories at weeks 0, 6, 13 and 26. All values were transformed to natural logarithms for the analysis. Geometric means were used to summarize lipid values by treatment group at each visit. Treatment groups were compared by analysis of covariance of change from baseline in transformed values with baseline as a covariate.
# [2] = system: patients with primary hypercholesterolemia and ≧2 additional risk factors for coronary artery disease; details: for Sudden cardiac death, number / Myocardial infarction (fatal and nonfatal), number: n = 530; for Myocardial infarction (fatal and nonfatal), number: p = 0.031 vs placebo
# Experimental: This example describes a large multinational study, “Effects of Pravastatin in Patients with Serum Total Cholesterol Levels from 5.2 to 7.8 mmol/liter (200 to 300 mg/dl) Plus Two Additional Atherosclerotic Risk Factors,” The Pravastatin Multinational Study Group for Cardiac Risk Patients, reported in Am. J. Cardiology Vol. 72, Nov. 1, 1993, 1031-1036. The study was designed to examine the efficacy and safety of pravastatin, together with diet modification and advice on smoking, in patients with primary hypercholesterolemia and ≧2 additional risk factors for coronary artery disease (CAD).
# (§1) The efficacy and long-term safety of pravastatin in hypercholesterolemic patients were investigated in this multicenter, randomized, double-blind placebo-controlled trial. After dietary stabilization and recommendations for lifestyle modification during a 6-week placebo lead-in period, patients were randomized to receive pravastatin 20 mg or placebo at bedtime. After 13 weeks, patients who responded (defined as a decrease in total cholesterol level by >15% from baseline or to <5.2 mmol/liter [200 mg/dl]) to treatment continued on the same study medication for 13 additional weeks. […] Compliance with dietary instructions and other lifestyle counseling were periodically assessed. After completing the initial 26-week period, patients were given the option to continue in an additional 26-week double-blind phase and, following the first 52 weeks, a final 26-week period that was open-label for pravastatin in patients originally assigned to that treatment group. Additional lipid-lowering medications, except other 3-hydroxy-3-methylglutaryl coenzyme A reductase inhibitors and fibrates, could be added to patients not meeting treatment goals at the end of the first 26 weeks. Fibrates could be added in the open-label period of the study in patients originally assigned placebo.
# The protocol was approved by each local ethics committee, and patients gave informed consent before randomization. The study population was to be limited to men and postmenopausal or surgically sterile women 20 to 69 years old. At entry, patients were to have a serum total cholesterol concentration between 5.2 and 7.8 mmol/liter (200 and 300 mg/dl) despite dietary intervention as well as ≧2 additional risk factors for CAD as defined in the protocol (male gender, systemic hypertension, cigarette smoking, family history of CAD, prior myocardial infarction, or history of angina pectoris). Exclusion criteria included (1) a history of homozygous familial hypercholesterolemia; (2) types I, III, IV or V hyperlipoproteinemia; (3) significant metabolic, renal, hepatic or endocrine disease; (4) history of drug abuse; or (5) obesity (>40% above ideal body weight). Patients were also excluded if, within 8 weeks of randomization, they were taking cortico-steroids immunosuppressive drugs, investigational drugs, androgens, or estrogens and progestins for indications other than replacement therapy.
# (§2) After ≧4 weeks of dietary stabilization, 2 qualifying blood samples for the lipid profile were drawn approximately 1 week apart after an overnight fast of ≧10 hours. Seated systolic and diastolic blood pressures were recorded at 2 weeks and 1 week before randomization; other risk factors were assessed 1 week before randomization. Baseline lipid and laboratory safety tests, blood pressure and body weight measurements, and an ophthalmologic evaluation (including visual acuity and determination of lenticular opacities) were performed at randomizations. The presence of concurrent disease and the use of concomitant medications were also recorded. When patients returned for clinic visits at weeks 6, 13 and 26, body weight and blood pressure were measured, morning samples for lipid profiles and laboratory safety tests were drawn, and clinical adverse events and concomitant medications were recorded. Drug compliance (by tablet count) was assessed and the ophthalmologic evaluation was repeated at weeks 13 and 26.
# [3] = system: patients with primary hypercholesterolemia and ≧2 additional risk factors for coronary artery disease; details: in vivo
# Experimental: as §1, §2
# Laboratory safety tests were performed by local laboratories and consisted of hematology (hemoglobin, red blood cell count, hematocrit, platelet count, and white blood cell count and differential) and blood chemistries (urea, creatinine, uric acid, calcium, total bilirubin, alkaline phosphatase, aspartate aminotransferase, alanine aminotransferase, γ-glutamyl aminotransferase, total protein, albumin and creatine kinase).
# The incidence of adverse events in each treatment group was summarized by body system and individual events. In addition, events predefined by the protocol to be serious, e.g., fatal events or events leading to or prolonging hospitalization, were tabulated. Hematology and biochemistry variables were summarized and analyzed by geometric means and analysis of covariance of change from baseline. Ophthalmologic results were summarized in terms of the number of lenticular opacities present at baseline and at weeks 13 and 26. […] Differences in the incidence of adverse events were typically analyzed by the chi-square test with the Fisher's exact test used for rare events. Results were reported as statistically significant if a 2-sided p value ≦0.05 was attained.
# [4] = system: patients with primary hypercholesterolemia and ≧2 additional risk factors for coronary artery disease; details: Pearson et al. commentary, cited from earlier work
# [5] = baseline to Week 26, p<0.001 vs placebo
# [6] = end of initial 26 weeks, 20 to 40 mg once daily (average dose 26.5 mg)
# [7] = week 13, 20 mg at bedtime, p<0.001 compared with placebo
# [8] = first 26 weeks, listed as Pravastatin
structure (smiles),measurement,setting,value
CC[C@H](C)C(=O)O[C@H]1C[C@H](O)C=C2C=C[C@H](C)[C@H](CC[C@@H](O)C[C@@H](O)CC(=O)O)[C@H]21 [pravastatin],"LDL cholesterol, Mean ± SEM","[1]; Baseline, n=499",4.69 ± 1.05 mmol/L
same,"HDL cholesterol, Mean ± SEM","[1]; Baseline, n=500",1.14 ± 0.35 mmol/L
same,"Triglycerides, Mean ± SEM","[1]; Baseline, n=520",1.77 ± 0.82 mmol/L
same,"Total cholesterol, Mean ± SEM","[1]; Baseline, n=521",6.81 ± 0.78 mmol/L
same,"HDL cholesterol, Mean ± SEM","[1]; Week 26, n=459",1.23 ± 0.37 mmol/L
same,"LDL cholesterol, Mean ± SEM","[1]; Week 26, n=459",3.47 ± 0.74 mmol/L
same,"Total cholesterol, Mean ± SEM","[1]; Week 26, n=483",5.55 ± 0.82 mmol/L
same,"Triglycerides, Mean ± SEM","[1]; Week 26, n=483",1.56 ± 0.74 mmol/L
same,"LDL cholesterol, % Change",[1]; [5],−26.01%
same,"Total cholesterol, % Change",[1]; [5],−18.50%
same,"Triglycerides, % Change",[1]; [5],−11.86%
same,"HDL cholesterol, % Change","[1]; baseline to Week 26, p<0.005 vs placebo",7.90%
same,increase in HDL cholesterol concentrations,[1]; [6],8%
same,reduction in LDL cholesterol,[1]; [6],26%
same,reduction in total cholesterol,[1]; [6],19%
same,reduction in triglycerides,[1]; [6],12%
same,elevation in HDL cholesterol,[1]; [7],7%
same,reduction in LDL cholesterol,[1]; [7],26%
same,reduction in total cholesterol,[1]; [7],19%
same,reduction in triglycerides,[1]; [7],12%
same,patients who achieved the target cholesterol goal,"[1]; week 13, goal: total cholesterol decrease >15% from baseline or to <5.2 mmol/liter",66%
same,number of patients who achieved the target cholesterol goal,"[1]; week 13, of 491 patients",326
same,patients who attained an LDL cholesterol concentration of ≦3.4 mmol/liter (130 mg/dl),[1]; week 26,47%
same,changes in visual acuity (without correction) and incidence of new ocular opacities,"[2]; both, human, in vivo",limited and similar in the 2 treatment groups
same,"Acute congestive heart failure, number","[2]; both, human, in vivo, 26 weeks",1
same,"Central nervous system serious adverse events, Subtotal","[2]; both, human, in vivo, 26 weeks",0
same,"Cerebral infarction, number","[2]; both, human, in vivo, 26 weeks",0
same,"Other serious adverse events, Subtotal","[2]; both, human, in vivo, 26 weeks",4
same,"Other serious adverse events: Diabetes, number","[2]; both, human, in vivo, 26 weeks",1
same,"Other serious adverse events: Gastrointestinal, number","[2]; both, human, in vivo, 26 weeks",2
same,"Other serious adverse events: Peripheral arterial disease, number","[2]; both, human, in vivo, 26 weeks",1
same,"Other serious adverse events: Pulmonary, number","[2]; both, human, in vivo, 26 weeks",0
same,Serious cardiovascular adverse events,"[2]; both, human, in vivo, 26 weeks",0.2%
same,"Serious cardiovascular adverse events (Subtotal), number","[2]; both, human, in vivo, 26 weeks",1
same,"Surgery serious adverse events, Subtotal","[2]; both, human, in vivo, 26 weeks",1
same,"Surgery: Abdominal (hernia), number","[2]; both, human, in vivo, 26 weeks",0
same,"Surgery: Breast, number","[2]; both, human, in vivo, 26 weeks",0
same,"Surgery: Coronary artery bypass graft, number","[2]; both, human, in vivo, 26 weeks",0
same,"Surgery: Joint (knee), number","[2]; both, human, in vivo, 26 weeks",1
same,"Syncope, number","[2]; both, human, in vivo, 26 weeks",0
same,"Total of all serious adverse events, number of events","[2]; both, human, in vivo, 26 weeks",6
same,"Transient ischemic attack, number","[2]; both, human, in vivo, 26 weeks",0
same,"Unstable angina leading to hospitalization, number","[2]; both, human, in vivo, 26 weeks",0
same,cardiovascular clinical adverse events,"[2]; both, human, in vivo, 26 weeks",2.8%
same,"cardiovascular clinical adverse events, number","[2]; both, human, in vivo, 26 weeks",15
same,patients reporting adverse events,"[2]; both, human, in vivo, 26 weeks",22.6%
same,"patients reporting adverse events, number","[2]; both, human, in vivo, 26 weeks",120
same,patients with serious adverse events,"[2]; both, human, in vivo, 26 weeks",0.9%
same,"patients with serious adverse events, number","[2]; both, human, in vivo, 26 weeks",5
same,patients withdrawn from the study because of an adverse event,"[2]; both, human, in vivo, 26 weeks",4.7%
same,"adverse events thought to be related to pravastatin administration, number","[2]; both, human, in vivo, 52 weeks",1
same,"cases of unstable angina, number","[2]; both, human, in vivo, 52 weeks",1
same,patients reporting clinical adverse events,"[2]; both, human, in vivo, 52 weeks",18.5%
same,"patients reporting clinical adverse events, number","[2]; both, human, in vivo, 52 weeks",55
same,patients who withdrew because of adverse events,"[2]; both, human, in vivo, 52 weeks",1.7%
same,"episodes of unstable angina, number","[2]; both, human, in vivo, 78 weeks",1
same,"myocardial infarctions, number","[2]; both, human, in vivo, 78 weeks",1
same,"Sudden cardiac death, number",[2]; first 26 weeks,none
same,"Sudden cardiac death, number",[2]; [8],0
same,"Myocardial infarction (fatal and nonfatal), number",[2]; first 26 weeks,no patient and none
same,"Myocardial infarction (fatal and nonfatal), number",[2]; [8],0
same,deaths,"[2]; first 26 weeks, three placebo-treated patients died",no pravastatin-treated patient died
same,"Total of all serious adverse events, number of events","[2]; human, in vivo",Six
same,"patients who sustained myocardial infarctions, number","[2]; human, in vivo",One
same,"patients who withdrew because of adverse events, number","[2]; human, in vivo",Five
same,"patients withdrawn because of angioedema thought to be possibly related to drug therapy, number","[2]; human, in vivo",One
same,"patients withdrawn because of creatine kinase elevation or musculoskeletal events, number","[2]; human, in vivo",Three
same,"patients withdrawn from the study because of an adverse event, number","[2]; human, in vivo",Twenty-five
same,serious cerebrovascular events,"[2]; human, in vivo",none
same,"total incidence of clinical adverse events, pravastatin vs placebo","[2]; human, in vivo",no differences
same,deaths,[2]; long-term portion of the trial,no deaths
same,patients with elevations of creatine kinase values to >4 times pretreatment values,"[3]; both, human",2.6%
same,"patients with elevations of creatine kinase values to >4 times pretreatment values, number","[3]; both, human",14
same,"patients with transient, asymptomatic elevations of hepatic transaminases to >3 times the upper limit of normal","[3]; both, human",1.1%
same,"patients with transient, asymptomatic elevations of hepatic transaminases to >3 times the upper limit of normal, number","[3]; both, human",6
same,"magnitude of the increases in alanine aminotransferase, aspartate aminotransferase and creatine kinase",[3],3-12%
same,mean level of alanine aminotransferase,[3],16.02 U/liter
same,mean level of aspartate aminotransferase,[3],17.24 U/liter
same,mean level of creatine kinase,[3],70.62 U/liter
same,syndrome of drug-induced myopathy (myalgia with creatine kinase >10 times upper limits of normal),[3],not observed in any patient
same,"medical and surgical events in the coronary and cerebrovascular beds, number","[4]; first 26 weeks, 21 in the placebo group",1
same,"cases of myocardial infarction or unstable angina, number","[4]; over the 78 weeks of the study, 16 in the placebo group",2
